According to patent publication US20130143244A1, “SOX9 AS A MARKER FOR AGGRESSIVE CANCER” (ADMINISTRATORS OF THE TULANE EDUCATIONAL FUND, priority 2010, published 2013):
“Also recorded” adds a separate entry of the source.

B1: wnt3a: recombinant wnt3a protein (R&D Systems) used to activate wnt signaling (protein, UniProt P56704 19-352, looked up)
Protein Wnt-3a: SYPIWWSLAVGPQYSSLGSQPILCASIPGLVPKQLRFCRNYVEIMPSVAEGIKIGIQECQHQFRGRRWNCTTVHDSLAIFGPVLDKATRESAFVHAIASAGVAFAVTRSCAEGTAAICGCSSRHQGSPGKGWKWGGCSEDIEFGGMVSREFADARENRPDARSAMNRHNNEAGRQAIASHMHLKCKCHGLSGSCEVKTCWWSQPDFRAIGDFLKDKYDSASEMVVEKHRESRGWVETLRPRYTYFKVPTERDLVYYEASPNFCEPNPETGSFGTRDRTCNVSSHGIDGCDLLCCGRGHNARAERRREKCRCVFHWCCYVSCQECTRVYDVHTCK

Experiments:
Assay type in all cases: cell-based, human
MDA-MB-231 cells [1] = assay: MTT cytotoxicity assay; conditions: for growth of MDA-MB-231 cells relative to control (cell viability by MTT): serum starved, increasing drug concentrations (TSA 50-500 nM, LMB 0.5-10 ng/ml), 48 h; for cell death: serum starved MDA-MB-231 cells, increasing drug concentrations
Method: MTT cytotoxicity assay: MDA-MB-231 or MCF7 cells were plated onto 96 well plates at a density of 2.5×10^3 cells/well. Cells were allowed to attach overnight and serum starved for the next 24 h. Following starvation, cells were treated with increasing concentration of Trichostatin A (50-500 nM) or Leptomycin B (0.5-10 ng/ml) and allowed to grow for next 24 h. At the end of 24 h drug treatment, media was supplemented with an equal volume of media with 20% FBS. An MTT assay was used to determine cell viability after exposure to test compounds for 48 h, including the 24 h of incubation with 10% FBS. Briefly, 10 μl of MTT reagent (5 mg/ml in PBS) was added to each well, the plate was incubated for 2-4 h to allow for the formation of formazan crystals, the media was aspirated from all wells and crystals were dissolved with 150 μl DMSO. The optical densities were measured at 540 nm on a BioTek uQuant microplate spectrophotometer (BioTek Instruments, Inc., Winooski, Vt.) and the percent of surviving cells was calculated with respect to control or untreated cells. For the modified MTT assay, the classical MTT reagent was replaced with WST-8, which produces a water soluble formazan dye upon bioreduction. For this assay, at the end of drug treatment, cells were incubated with 10 μl of WST-8 per 100 μl media/per well for 2-3 h. O.D. at 450 nm was measured to determine cell viability in each well.

[2] = tested on: SOX9 localization in MDA-MB-231 cells; assay: Immunofluorescence microscopy of SOX9 localization; conditions: serum-deprived MDA-MB-231 cells, TSA 500 nM or LMB 5 ng/mL for 4 h, then 10% FBS
Method: Cells were grown on sterile glass coverslips in 6 well plates to 30%-40% confluence in their respective media, serum starved for the next 24 h treated with 1 nM all trans retinoic acid, 500 nM TSA or 5 ng/mL Leptomycin B for 4 h and then with 10% FBS for 2-3 h. Coverslips were washed three times in PBS and fixed in 4% paraformaldehyde for 30 minutes. After washing the coverslips again with PBS three times, they were blocked with 10% whole goat serum (Santa Cruz Biotechnology, Inc., Santa Cruz, Calif.) for thirty minutes. Cells were stained with anti-SOX9 (1:1,000 dil) antibody or anti-DDK tag antibody (OriGene Technologies, Inc., Rockville, Md.) and visualized using alexa 488-conjugated or 594-conjugated secondary (1:500 dilution) antibody (Molecular Probes®, Invitrogen Corp., Carlsbad, Calif.) as described previously (Chakravarty et al., Exp Biol Med (Maywood), 234:372-86 (2009)). For analysis, cells were visualized with a Nikon N300 microscope (Nikon Instruments Inc., Melville, N.Y.). Filter sets for FITC and DAPI were used to capture images that were then analyzed with Elements software. To establish that response to growth arrest signals was dependent on SOX9's cellular localization, both cell lines were also cultured on coverslips, serum starved for 24 h, and subsequently exposed to 10% FBS and stained with SOX9 antibody as described above.

[3] = tested on: p21, SOX9 and acetylated SOX9 in MDA-MB-231 cells; assay: Immunoblot and immunoprecipitation analysis of p21, SOX9 and acetylated SOX9; conditions: for p21 expression, arbitrary units normalized to actin level, change compared to cells grown in 10% FBS medium: TSA 500 nM or LMB 5 ng/ml for 4 h
Method: Asynchronous cell populations at a density of 50-60% in 6-well plates were serum deprived for 24 h, treated with TSA (500 nM), or Leptomycin B (5 ng/ml) for the next 4 h and then cultured in the presence of 10% FBS for 2-3 h before harvesting. Immunoblotting was performed by solubilizing cells in RIPA buffer, electrophoresing on 10% SDS-PAGE gels, incubating with primary antibodies for 1-2 h at room temperature, and detecting primary antibodies using HRP-conjugated secondary antibodies (1:30,000 dilution, Santa Cruz Biotechnology Inc.) and Amersham® ECU® (GE Healthcare Bio-Sciences Corp., Piscataway, N.J.) as described in Wang et al., Clin Cancer Res., 12:4755-65 (2006). Western blots were quantified by calculating an integrated density value (IDV) for each band using Bio-Rad's Gel Doc™ system and normalizing to the IDV of actin. For immunoprecipitation, total protein lysates were centrifuged at 14,000×g for 15 minutes at 4° C. Supernatants were then transferred to fresh centrifuge tubes and precleared with 50 μl of protein A Sepharose™ bead slurry (50%) per 1 ml of cell lysate. Incubation was continued at 4° C. for 30 minutes on a rocker or orbital shaker. Protein A beads were then collected by centrifugation at 14,000×g at 4° C. for 5 minutes. Protein concentration of the saved supernatant was determined after removing the beads. Approximately 500 μg to 1 mg of protein from each sample was transferred to fresh centrifuge tubes and diluted to 1 ml with ice cold PBS to reduce the concentration of the detergents in the buffer. The diluted lysates were incubated with 2 μg/mg protein anti-SOX9 antibody and rotated overnight at 4° C. Immuno complexes were captured with slurry of protein A-Sepharose™ CL-4B (Sigma) pre-washed with BSA through rotations for 1 h at 4° C. and washed three times with ice-cold modified RIPA buffer (Tris-HCl: 50 mM, pH 7.4, NP-40:1%, Na-deoxycholate: 0.25%, NaCl: 150 mM, EDTA: 1 mM, PMSF: 1 mM, NaF: 1 mM). Washed Sepharose™ beads were resuspended in 60 μl RIPA buffer with SDS dye and resolved on 10% SDS-PAGE gels. Blotted proteins were immunoprobed with antilysine antibody to detect the levels of acetylated SOX9.

MDA-MB-231 cells [4] = assay: Gene expression profiling using RT2 Profiler PCR Array; conditions: MDA-MB-231 cells serum starved, TSA for 4 h, then FBS
Method: MDA-MB-231 cells with or without TSA treatment were harvested for total RNA using Trizol (Invitrogen) and reverse transcribed using RT^2 first strand kit from SABiosciences (Frederick, Md.). Real-Time PCR was performed according to the RT^2 Profiler PCR Array User manual (SABiosciences) using SYBR Green PCR Master Mix for the CFX96™ Real-Time PCR detection system from Bio-Rad (Bio-Rad Laboratories, Inc., Hercules, Calif.). The PAHS-090C PCR Array was repeated twice for each cDNA sample and the data were analyzed using Excel-based PCR Array Data Analysis Templates from SABiosciences.
The average Ct value of each gene obtained from duplicate experiments was used to calculate its expression value, which was expressed as 2−ΔCt (ΔCt=CtGOI−Ave CtHKG; GOI=gene of interest, HKG=housekeeping gene, Ave CtHKG=average Ct value of five housekeeping genes).

[5] = tested on: beta catenin reporter (TOP-flash/FOP-flash) in MDA-MB-231 cells; assay: TOP-flash / FOP-flash beta catenin reporter transfection experiment
Method: The Col2a1 reporter gene (Lefebvre et al., Mol Cell Biol, 17:2336-46 (1997)) was kindly provided by Prof. Benoit deCrombrugghe's laboratory. The beta catenin reporter set containing the plasmids TOP-flash and FOP-flash were made available by Prof. Randall Moon's laboratory.
For transfection, MDA-MB-231 cells were cultivated at 2.5×10^5 cells per well in 6-well plates. Twenty four hours later, transfection was performed using lipofectamine 2000 (Invitrogen) according the manufacturer's instruction. Cells in 6-well plates were transfected with 0.250 μg DNA of Col2a1 reporter or […] DNA of Top-flash or Fop-flash reporters, 10 ng of Renilla luciferase and 1.0 μg of wild type DDK tagged SOX9 per well. Top-flash or Fop-flash reporter transfected wells were treated with 15-ng/ml recombinant wnt3a protein (R&D Systems, Inc., Minneapolis, Minn.) after 24 h of transfection. All transfected cells were lysed directly in Promega's Dual Luciferase lysis buffer and collected with a cell scrape. Luciferase measurement was performed using a Optocomp I luminometer (MGM Instruments, Inc., Hamden, Conn.). Cellular localization of wild type DDK tagged SOX9 was detected using immunofluorescence as described above.

Row | Molecule | growth of MDA-MB-231 cells relative to control (cell viability by MTT) (MDA-MB-231 cells [1]) | cell death (MDA-MB-231 cells [1]) | nuclear localization of SOX9 [2] | acetylation of endogenous SOX9 protein ([3]; TSA 500 nM for 4 h, immunoprecipitation and anti acetylated lysine blot) | endogenous SOX9 protein expression, arbitrary units normalized to actin level, increase ([3]; TSA 500 nM for 4 h, western blot) | p21 expression, arbitrary units normalized to actin level, change compared to cells grown in 10% FBS medium ([3]; western blot) | gene expression profile with versus without TSA treatment (MDA-MB-231 cells [4]) | induction of TOP-flash reporter, wnt3a treated versus untreated cells ([5]; MDA-MB-231 cells transfected with wild type (nuclear) SOX9, 15 ng/ml recombinant wnt3a) | FOP-FLASH reporter activity, wnt3a treated versus untreated cells ([5]; MDA-MB-231 cells, mutated LEF-1/TCF-binding sites control vector)
1 | CC(/C=C/C(=O)NO)=C\[C@@H](C)C(=O)c1ccc(N(C)C)cc1 [TSA, [R-(E,E)]-7-[4-(Dimethylamino)phenyl]-Nhydroxy-4,6-dimethyl-7-oxo-2,4-heptadienamide] | decrease in proliferative potential; also recorded: markedly heightened sensitivity to growth inhibition | dose dependent increase in cell death | marked increase in nuclear SOX9 staining; also recorded: enhanced nuclear localization of SOX9 | enhanced acetylation of endogenous SOX9 protein | 1.2 fold | 1.3 fold | several fold higher expression of genes involved in growth, development and differentiation and downregulation of migration, motility and cytoskeletal genes | – | –
2 | CCC(=C/[C@H](C)C/C=C/C(C)=C/[C@@H](C)C(=O)[C@@H](C)[C@H](O)[C@@H](C)C/C(C)=C/C(=O)O)/C=C/[C@@H]1OC(=O)C=C[C@@H]1C [LMB, leptomycin B] | unaffected | unable to retain SOX9 in the nucleus or induce cell death; also recorded: unaffected | unable to retain SOX9 in the nucleus; also recorded: unaffected | – | – | 0.08 fold | – | – | –
3 | B1 | – | – | – | – | – | – | – | 22 fold | unchanged
